The values that follow come from patent US6506431B2, “Spore germination inhibitor and food containing the same” (Ajinomoto Co., Inc., priority 2000, dated 2003).

Data set [1] is described as follows: Solubility of CPC (properties). In kind it is physicochemical.
Data set [2] concerns Bacillus subtilis spores. In words: Germination inhibition by combination of CPC and D-alanine in sufficient nutrients (Example 3). In kind it is cell-based. The note with it: 1 mg/ml each; for variation of the turbidity of the spore suspension at 600 nm (germination): 25 g/l Bacto-LB broth plus AGFK germinator, 37° C., 2 hours; for inhibition at 1000 µg/mL: Bacillus subtilis, 0.5 h, LB broth plus AGFK, variation of OD600 for 30 minutes, test group 1 = 100%, test group 2 = 0%, read-out: germination inhibition rate. The method, then:
Thereupon, in order to examine germination-inhibitory effects by the combination of CPC and D-alanine which is a known germination-inhibitory substance, the following test groups were prepared. Spore suspension containing 0.1 mg/ml Bacillus subtilis spores, 20 mM Tris.HCl, pH 7.5. Spore suspension containing 0.1 mg/ml Bacillus subtilis, 25 g/l Bacto-LB broth, Miller (DIFCO) as sufficient nutrients, and 10 mM L-asparagine, 1 mM D-glucose, 1 mM D-fructose and 10 mM KCl (AGFK system) as germinator. Spore suspension as above containing the sufficient nutrients (Test Group 2) and further containing 1 mg/ml CPC. Spore suspension as above containing the sufficient nutrients (Test Group 2) and further containing 1 mg/ml D-alanine. Spore suspension as above containing the sufficient nutrients (Test Group 2) and further containing 1 mg/ml CPC and 1 mg/ml D-alanine. The above spore suspensions were allowed to react at 37° C. for 2 hours, and spore germination conditions were examined. The variation of the turbidity of each test group was measured through the above reaction at 600 nm using a spectrophotometer. […] After 2 hours, the turbidity became the same turbidity as the initial one, and growth subsequest to the germination (vegetative growth) was observed. […] Each inhibition rate was calculated based on the variation of OD600 value for 30 minutes from the start of measurement wherein the germination inhibition rate in the test group 1 is assigned 100% and that in the test group 2 is assigned 0%.

Data set [3] deals with Bacillus subtilis spores. In words: Spore germination-inhibitory effects by CPC, AGFK germinator (Example 2). In kind it is cell-based. The note with it: 1 mg/ml CPC, 37° C., 2 hours. As to the method:
The germination-inhibitory activity was measured as follows: ½ volume of a sample was allowed to react with ½ volume of spore suspension (0.2 mg/ml Bacillus subtilis spores, 40 mM Tris HCl, pH 7.5) containing germinator (20 mM L-asparagine, 2 mM D-glucose, 2 mM D-fructose, 20 mM KCl) at 37° C. The spores gradually darkened with germination increase, and turbidity of the suspension decreased. Thereupon, the turbidity of the spore suspension was measured at 600 nm using a spectrophotometer, and a germination rate was determined by calculating the rate of decrease of turbidity. In order to examine the germination-inhibitory effects of CPC, the following tests were conducted. Spore suspension containing 0.1 mg/ml Bacillus subtilis spores, 20 mM Tris.HCl, pH 7.5. Spore suspension as above further containing 10 mM L-asparagine, 1 mM D-glucose, 1 mM D-fructose and 10 mM KCl as germinator. Spore suspension as above containing the germination (Test Group 2) and further containing 1 mg/ml CPC. The above spore suspensions were allowed to react at 37° C. for 2 hours, and spore germination conditions were examined. The turbidity of each test group after 2 hours was measured at 600 nm using a spectrophotometer. In the test group 2, the turbidity of the spore suspension was decreased remarkably compared with the start of the reaction, and sufficient germination of spores was found. […]

`NC(=O)c1cccc(C(=O)O)n1` [CPC, 6-carbamoyl-2-pyridine carboxylic acid]: in data set [1], the solubility entry is “Soluble in water, particularly alkaline water, and organic solvent, such as pyridine and DMSO”. Besides, in data set [2], the “variation of the turbidity of the spore suspension at 600 nm (germination)” value is given as “growth subsequent to the germination was observed” and the inhibition at 1000 µg/mL was 9%. The “spore germination observed by phase-contrast microscope” value in data set [3] (AGFK germinator) is listed as “germination of spores was not recognized”. In addition, the “spore germination by turbidity of the spore suspension at 600 nm” value in data set [3] (germinator 10 mM L-asparagine, 1 mM D-glucose, 1 mM D-fructose, 10 mM KCl) is “germination was not observed”.
For `C[C@@H](N)C(=O)O` [D-alanine, reference compound], in data set [2], the “variation of the turbidity of the spore suspension at 600 nm (germination)” value was “growth subsequent to the germination was observed” and the inhibition at 1000 µg/mL came out at 16%.
